# Where two headings read alike, the source gives them in different places.
# Experiments:
# full-length human AR = biological target: T1, full-length human AR (Homo sapiens, UniProt P10275); assay: AR antagonism, reporter gene assay in hAR/HEK293 cells; format: cell-based; details: HEK293 cells stably transfected with full-length human AR and androgen responsive luciferase reporter; co-treated with submaximal testosterone (usually 0.45 nM); 1% DMSO; triplicates
# T1 construct: expression vector encoding full-length human AR; expressed in transfected cells; host or cells: HEK293 (hAR/HEK293 cells)
# T1 sequence (P10275 1-920): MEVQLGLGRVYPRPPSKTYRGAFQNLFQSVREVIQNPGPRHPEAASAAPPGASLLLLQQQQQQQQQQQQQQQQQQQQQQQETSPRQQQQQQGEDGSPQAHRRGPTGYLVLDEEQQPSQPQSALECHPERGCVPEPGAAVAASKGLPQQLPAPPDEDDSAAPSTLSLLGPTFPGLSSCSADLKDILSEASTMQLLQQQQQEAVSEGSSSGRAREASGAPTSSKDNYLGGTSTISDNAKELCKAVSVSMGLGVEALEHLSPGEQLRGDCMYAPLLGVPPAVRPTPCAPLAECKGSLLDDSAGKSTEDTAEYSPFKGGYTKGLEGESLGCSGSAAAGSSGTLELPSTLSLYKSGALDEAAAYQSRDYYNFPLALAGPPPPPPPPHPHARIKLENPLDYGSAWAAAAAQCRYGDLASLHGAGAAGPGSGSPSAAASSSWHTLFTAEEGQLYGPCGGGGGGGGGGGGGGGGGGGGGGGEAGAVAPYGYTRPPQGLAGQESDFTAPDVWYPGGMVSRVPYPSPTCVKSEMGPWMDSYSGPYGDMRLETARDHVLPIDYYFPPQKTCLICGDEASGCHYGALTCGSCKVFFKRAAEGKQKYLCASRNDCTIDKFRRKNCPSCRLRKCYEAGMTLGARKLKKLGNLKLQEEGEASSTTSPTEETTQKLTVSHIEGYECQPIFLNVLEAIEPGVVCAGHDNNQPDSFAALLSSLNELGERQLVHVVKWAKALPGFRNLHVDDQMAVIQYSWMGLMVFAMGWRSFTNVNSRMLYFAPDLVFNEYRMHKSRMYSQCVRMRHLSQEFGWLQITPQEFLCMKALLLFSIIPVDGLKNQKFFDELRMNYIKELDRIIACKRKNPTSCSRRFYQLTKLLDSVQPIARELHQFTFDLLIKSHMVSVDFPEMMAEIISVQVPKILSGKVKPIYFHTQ
# Protocol: Antagonism of test compounds for AR was measured by reporter gene assay in human embryonic kidney (HEK293) cells stably transfected with an expression vector encoding full-length human AR and androgen responsive luciferase reporter gene construct (hAR/HEK293 cells). To determine antagonism for hAR, the cells were treated simultaneously with increasing concentrations of the test compound and submaximal concentration of testosterone (usually 0.45 nM). The final DMSO concentration was 1%. All test compounds were studied in triplicates. The cells were incubated for […] before measurement of luciferase activity using Luciferase Assay System (Promega Corporation).
# 17,20 lyase (CYP17) = biological target: T2, 17,20 lyase (CYP17) (Homo sapiens, UniProt P05093); assay: 17,20 lyase (CYP17) inhibition, acetic acid release assay (AARA) on H295R cells; format: cell-based
# T2 construct: endogenous in cells; host or cells: H295R human adrenocortical carcinoma cells
# T2 sequence (P05093 1-508): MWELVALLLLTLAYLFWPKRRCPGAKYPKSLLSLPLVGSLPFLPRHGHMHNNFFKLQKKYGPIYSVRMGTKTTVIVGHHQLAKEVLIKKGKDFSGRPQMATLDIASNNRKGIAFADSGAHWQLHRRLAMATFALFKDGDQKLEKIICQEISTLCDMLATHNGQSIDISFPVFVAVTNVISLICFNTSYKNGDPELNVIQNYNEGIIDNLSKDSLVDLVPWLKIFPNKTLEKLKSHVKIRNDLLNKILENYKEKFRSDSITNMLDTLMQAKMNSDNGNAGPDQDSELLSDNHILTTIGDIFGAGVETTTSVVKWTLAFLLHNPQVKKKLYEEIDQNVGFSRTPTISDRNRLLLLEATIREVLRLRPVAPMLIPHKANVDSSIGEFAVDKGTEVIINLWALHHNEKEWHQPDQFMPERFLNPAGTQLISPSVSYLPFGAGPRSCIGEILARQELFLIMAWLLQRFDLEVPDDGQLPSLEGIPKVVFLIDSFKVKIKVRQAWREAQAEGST
# Protocol: The ability of the test compounds to inhibit 17,20 lyase catalysed conversion of 17α-hydroxypregnenolone to dehydroepiandrosterone and acetic acid was measured by acetic acid release assay (AARA) on human H295R adrenocortical carcinoma cell line (Grigoryev, D. N. et al., Analytical Biochemistry 1999; 267:319-330). […] The final DMSO concentration was 1%. Cell culture medium was extracted with dextran-coated charcoal suspension (Isomaa, V. et al., Endocrinology 1982; 111(3):833-843). ^3H-acetic acid was determined by mixing 100 μl of supernatant fraction in 200 μl of scintillation fluid (OptiPhase SuperMix, Perkin Elmer). Radioactivity was measured using a Microbeta scintillation counter (1450 MicroBeta Trilux, Wallac). All the test compounds were studied in quadruplicates.
# [1] = human H295R adrenocortical carcinoma cells, overnight (16-19 h) with 17α-[21-3H]hydroxypregnenolone, 3H-acetic acid release, 1% DMSO, quadruplicates, read-out: CYP17 inhibition IC50
SMILES,IC50 (full-length human AR) [nM],"IC50 (17,20 lyase (CYP17)) [nM]","IC50 (17,20 lyase (CYP17); [1]) [nM]"
"CCN(c1ccc(C#N)c(C(F)(F)F)c1)C1CCCC(n2cncn2)C1 (single isomer, unassigned; diastereomer 4) [Ex. 209 cis-diastereomer, 4-((3-(1H-1,2,4-triazol-1-yl)cyclohexyl)(ethyl)amino)-2-(trifluoromethyl)-benzonitrile]",56,154,–
"CCN(c1ccc(C#N)c(C(F)(F)F)c1)C1C=C(n2ccnc2)CCC1 (stereo not drawn) [Ex. 63, 4-((3-(1H-imidazol-1-yl)cyclohex-2-en-1-yl)(ethyl)amino)-2-(trifluoromethyl)benzonitrile]",34,70,–
"CCN(c1ccc(C#N)c(C(F)(F)F)c1)C1CCC=C(c2cncn2CC)C1 (single isomer, unassigned; isomer 4) [Ex. 208 1,5-isomer, 4-(ethyl(3-(1-ethyl-1H-imidazol-5-yl)cyclohex-3-en-1-yl)-amino)-2-(trifluoromethyl)benzonitrile]",34,137,–
"CN(c1ccc(C#N)c(C(F)(F)F)c1)C1C=C(n2ccnc2)CCC1(C)C (racemic) [Ex. 130 racemate, 4-{[3-(1H-Imidazol-1-yl)-6,6-dimethylcyclohex-2-enyl](methyl)amino}-2-(trifluoromethyl)benzonitrile]",65,–,14
"CCN(c1ccc(C#N)c(Cl)c1)C1CCCC(n2ccnc2)C1 (single isomer, unassigned; diastereomer 4) [Ex. 91 cis-diastereomer, 4-((3-(1H-imidazol-1-yl)cyclohexyl)(ethyl)amino)-2-chlorobenzonitrile]",64,36,–
"CCN(c1ccc(C#N)c(Cl)c1C)C1CCCC(n2ccnc2)C1 (single isomer, unassigned) [Ex. 13, 4-((3-(1H-imidazol-1-yl)cyclohexyl)(ethyl)amino)-2-chloro-3-methylbenzonitrile]",60,92,–
"CCN(c1ccc(C#N)c(C(F)(F)F)c1)C1CCC=C(c2ccncc2OC)C1 (single isomer, unassigned; isomer 4) [Ex. 84 3,4-isomer, 4-(Ethyl(3-(3-methoxypyridin-4-yl)cyclohex-3-en-1-yl)amino)-2-(trifluoromethyl)benzonitrile]",50,96,–
"CN(c1ccc(C#N)c(C(F)(F)F)c1)[C@@H]1C=C(n2ccnc2)[C@H](O)CC1(C)C (relative stereo) [Ex. 236, Cis-4-((4-hydroxy-3-(1H-imidazol-1-yl)-6,6-dimethylcyclohex-2-enyl)-(methyl)amino)-2-(trifluoromethyl)benzonitrile]",124,247,–
"CCN(c1ccc(C#N)c(C(F)(F)F)c1)[C@@H]1CCCN(c2ccncc2F)C1 [Ex. 160, (R)-4-(Ethyl(1-(3-fluoropyridin-4-yl)piperidin-3-yl)amino)-2-(trifluoromethyl)benzonitrile]",27,111,–
"CN(c1ccc(C#N)c(C(F)(F)F)n1)C1C=C(n2ccnc2)CCC1(C)C (stereo not drawn) [Ex. 250, 6-{[3-(1H-Imidazol-1-yl)-6,6-dimethylcyclohex-2-enyl](methyl)amino}-2-(trifluoromethyl)nicotinonitrile]",205,–,27
"CCN(c1ccc(C#N)c(C(F)(F)F)c1)C1CC=C(c2cnco2)C1 (single isomer, unassigned) [Ex. 233 enantiomer 1, 4-(Ethyl(3-(oxazol-5-yl)cyclopent-3-enyl)amino)-2-(trifluoromethyl)benzonitrile]",59,66,–
"CCN(c1ccc(C#N)c(C(F)(F)F)c1)C1CC=C(n2ccnc2)C1(C)C (stereo not drawn) [Ex. 275, 4-((3-(1H-imidazol-1-yl)-2,2-dimethylcyclopent-3-en-1-yl)(ethyl)amino)-2-(trifluoromethyl)benzonitrile]",63,82,–
"Cc1nc(N(C)C2C=C(n3ccnc3)CCC2(C)C)ccc1[N+](=O)[O-] (single isomer, unassigned) [Ex. 203 enantiomer 1, N-[3-(1H-Imidazol-1-yl)-6,6-dimethylcyclohex-2-enyl]-N,6-dimethyl-5-nitropyridin-2-amine]",17,–,16
"CCN(c1ccc(C#N)c(C(F)(F)F)c1)C1C=C(n2ccnc2)C2(CC1)CC2 (stereo not drawn) [Ex. 107, 4-((4-(1H-imidazol-1-yl)spiro[2.5]oct-4-en-6-yl)(ethyl)amino)-2-(trifluoromethyl)benzonitrile]",51,33,–
"CCN(c1ccc(C#N)c(C(F)(F)F)c1)C1CCC=C(c2c[nH]cn2)C1(C)C (stereo not drawn) [Ex. 100, 4-((3-(1H-imidazol-4-yl)-2,2-dimethylcyclohex-3-en-1-yl)(ethyl)amino)-2-(trifluoromethyl)benzonitrile]",–,–,36
"CCN(c1ccc(C#N)c(Cl)c1)C1C=C(n2ccnc2)CCC1(C)C (single isomer, unassigned; enantiomer 1) [Ex. 21, 4-((3-(1H-imidazol-1-yl)-6,6-dimethylcyclohex-2-enyl)(ethyl)amino)-2-chlorobenzonitrile (enantiomer 1)]",19,76,–
"CCN(c1cc(F)c(C#N)c(F)c1)C1CCCC(n2ccnc2)C1 (single isomer, unassigned; diastereomer 4) [Ex. 12 cis-diastereomer]",–,–,18
"CN(c1ccc(C#N)c(C(F)(F)F)c1)C1CC(c2c[nH]cn2)=CCC1(C)C (single isomer, unassigned; diastereomer 1) [Ex. 244 diastereomer 1, 4-{[3-(1H-Imidazol-4-yl)-6,6-dimethylcyclohex-3-enyl](methyl)amino}-2-(trifluoromethyl)benzonitrile]",–,–,116
"CN(c1ccc(C#N)c(C(F)F)c1)C1C=C(n2ccnc2)CCC1(C)C (single isomer, unassigned) [Ex. 240(b), 4-((3-(1H-imidazol-1-yl)-6,6-dimethylcyclohex-2-enyl)(methyl)amino)-2-(difluoromethyl)benzonitrile (pure enantiomer)]",52,–,33
"CCN(c1ccc(C#N)c(C(F)(F)F)c1)C1CCC(c2cnc[nH]2)C1 (stereo not drawn) [Ex. 219, 4-((3-(1H-imidazol-5-yl)cyclopentyl)(ethyl)amino)-2-(trifluoromethyl)-benzonitrile]",–,–,105
"CN(c1ccc(C#N)c(Cl)c1)[C@@H]1C=C(n2ccnc2)[C@H](O)CC1(C)C (single isomer, unassigned; enantiomer 1) [Ex. 253(b), cis-2-Chloro-4-{[4-hydroxy-3-(1H-imidazol-1-yl)-6,6-dimethylcyclohex-2-enyl](methyl)amino}benzonitrile (enantiomer 1)]",140,124,–
"CCN(c1ccc(C#N)c(Cl)c1)C1CC=C(c2c[nH]cn2)C1 (stereo not drawn) [Ex. 133, 4-((3-(1H-Imidazol-4-yl)cyclopent-3-en-1-yl)(ethyl)amino)-2-chlorobenzonitrile]",–,–,7
